In publication PMC5897276, “External radiation exposure, excretion, and effective half-life in ^177Lu-PSMA-targeted therapies” (EJNMMI Research, 2018):
Marks after values point to notes of the source that are not given here.

Assays:
[1] = Whole-body activity measurement with external gamma probe and analysis of excreted activity; assay type: in vivo, patients; settings: for Excreted activity Aex between given time point and previous time point, max / Excreted activity Aex between given time point and previous time point, mean / Excreted activity Aex between given time point and previous time point, min / Overall excreted activity as percentage of administered activity, max / Overall excreted activity as percentage of administered activity, mean / Overall excreted activity as percentage of administered activity, min: 25 patients (Department 2)
Procedure: The analysis of the excretion of unbound ^177Lu-PSMA ligands and lutetium-177 was performed indirectly by measuring the remaining activity within the body of the patients at different time points with an external gamma probe. This has been proven to be a fast, simple, and robust method to estimate the activity within the body of the patient. The difference compared with the expected activity that can be calculated directly by the physical decay of the administered activity is assumed to be equivalent to the excreted activity.
The measurements were carried out in Department 2, using a cohort of 25 patients (see Table 1). The whole-body activity was measured at 0 h (before voiding, reference) and approximately at 2, 4, 12, 24, 48, and 72 h after the administration of ^177Lu-PSMA-617.
The remaining activity AWB in the patient at the given time point ti was determined by the following equation:1 AWBti=CAti⋅CPti/CFP, where cA(ti) and cP(ti) are the count rates (compensated for the background) at the given time point for the anterior and posterior views respectively. CFP is a patient-specific calibration factor based on a baseline measurement of each patient, performed immediately after administration of ^177Lu-PSMA-617 and before the first voiding of the bladder. This factor is calculated according to the following equation:2 CFP=CA0⋅Cp0/AP, where AP is the administered activity. This factor represents the efficiency of the detector for the spatially distributed activity and intrinsically considers the self-attenuation of the γ photons by the body of the patient.
The excreted activity Aex at the time point ti was calculated as the difference of the whole-body activity at the previous time point ti − 1 (corrected for decay) and the whole-body activity at the time point ti. The whole extracted activity can then be calculated as a summation:3 Aex=∑j=1iAWBti−1e^−ln2/T1/2∙ti−ti−1−AWBti,
A 3″ × 3″-NaI (Tl) detector (Type 905-4) with multichannel analyzer and software (digiBASE, MAESTRO, Ortec, Oak Ridge, USA) was used as a measurement system. It was calibrated using americium-241, cobalt-57, cesium-137, and iodine-131 test sources, and regular quality checks were carried out. The shielded detector (collimator of 3 cm lead) was positioned 1 m above the floor, and the field of view covered the whole body of the patient. The energy window was set to 208 keV ± 27%, corresponding to approximately 3 × full width at half maximum of the energy resolution of the NaI (Tl) detector. The background was measured for 300 s without the presence of a patient. Patients were measured in anterior and posterior standing positions while holding arms close to the body at a distance of 2 m from the collimator surface. For all measurements, the acquisition time corrected for dead-time effects was set to 90 s. […] No further corrections (e.g., for pile-up or non-linearity) were applied. Statistical uncertainties of the count rate were below 1% for all measurements, as recommended by Hindorf et al.. Bi-exponential functions were fitted to the data, and the effective half-lives were calculated. The bi-exponential fit model was chosen after comparing the quality of fit of mono- and bi-exponential models using the Akaike criterion as described by Kletting et al..

[2] = Whole-body dose rate measurement at a distance of 2 m and calculation of effective half-life; assay type: in vivo, patients; settings: for Calculated effective half-life T1/2eff, max / Calculated effective half-life T1/2eff, mean / Calculated effective half-life T1/2eff, min: mono-exponential fit of dose rate
Procedure: The measurements and analyses were carried out with 50 patients from both departments as characterized in Table 1. All patients of Department 2 were released from the hospital 72 h p. i. for organizational reasons. Therefore, dose rate measurements were also available for ti = 72 h p. i.
In both departments, the dose rate monitor LB 123 D-H10 (Berthold Technologies, Bad Wildbad, Germany) was used, which is suitable for dose rate levels between 0.05 μSv/h and 10 mSv/h within an energy range from 30 keV to 1.3 MeV. The systems were officially calibrated, and regular quality checks were carried out. The patients were measured in the standing position from the anterior (DRA) and posterior (DRP) view at a distance of 2 m from the surface of the detector. The dose rate DR for different time points (see Table 1) was then calculated as the geometric mean of both measurements5 DRti=DRAti∙DRPti.
The data were fitted by a mono-exponential curve, and the effective half-life was calculated for the different time points: 24, 48, and 72 h (only from the data of Department 2). […] For all comparisons, the time point 48 h was chosen as the reference, because it is standard that the patients are released from the therapy ward after 48 h. Subsequently, Eq. 4 was used to determine the dose D to the public after the discharge of the patient for different time points of release (24, 48, and 72 h p. i.), substituting T1/2eff by T1/2ind (individual half-life of each patient), T1/2phys (physical half-life of ^177Lu), and T1/2max (maximum of the calculated effective half-life of the patient cohort) for different calculations. In addition, a correlation analysis (Spearman and Pearson) of the dose rate and administered activity was performed.

[3] = time point 24.2 ± 0.7 h (from 2 h/4 h and 24 h)
[4] = time point 67.7 ± 2.3 h (72 h; from 24, 48 and 72 h), 25 patients (Department 2)

O=C([O-])CN1CCN(CC(=O)[O-])CCN(CC(=O)NCC2CCC(C(=O)N[C@@H](Cc3ccc4ccccc4c3)C(=O)NCCCC[C@H](NC(=O)N[C@@H](CCC(=O)O)C(=O)O)C(=O)O)CC2)CCN(CC(=O)[O-])CC1.[177Lu+3] (some centres unmarked) [^177Lu-PSMA-617]
Excreted activity Aex between given time point and previous time point, max ([1]; 2 h p. i.): 2621 MBq
Excreted activity Aex between given time point and previous time point, mean ([1]; 2 h p. i.): 1718 MBq
Excreted activity Aex between given time point and previous time point, min ([1]; 2 h p. i.): 735 MBq
Overall excreted activity as percentage of administered activity, max ([1]; 2 h p. i.): 42%
Overall excreted activity as percentage of administered activity, mean ([1]; 2 h p. i.): 30%
Overall excreted activity as percentage of administered activity, min ([1]; 2 h p. i.): 13%
Excreted activity Aex between given time point and previous time point, max ([1]; 4 h p. i.): 1526 MBq
Excreted activity Aex between given time point and previous time point, mean ([1]; 4 h p. i.): 1265 MBq
Excreted activity Aex between given time point and previous time point, min ([1]; 4 h p. i.): 1060 MBq
Overall excreted activity as percentage of administered activity, max ([1]; 4 h p. i.): 62%
Overall excreted activity as percentage of administered activity, min ([1]; 4 h p. i.): 30%
Excreted activity Aex between given time point and previous time point, max ([1]; 12 h p. i.): 1323 MBq
Excreted activity Aex between given time point and previous time point, mean ([1]; 12 h p. i.): 1155 MBq
Excreted activity Aex between given time point and previous time point, min ([1]; 12 h p. i.): 1009 MBq
Overall excreted activity as percentage of administered activity, max ([1]; 12 h p. i.): 82%
Overall excreted activity as percentage of administered activity, min ([1]; 12 h p. i.): 48%
Excreted activity Aex between given time point and previous time point, max ([1]; 24 h p. i.): 474 MBq
Excreted activity Aex between given time point and previous time point, mean ([1]; 24 h p. i.): 395 MBq
Excreted activity Aex between given time point and previous time point, min ([1]; 24 h p. i.): 318 MBq
Overall excreted activity as percentage of administered activity, max ([1]; 24 h p. i.): 87%
Overall excreted activity as percentage of administered activity, mean ([1]; 24 h p. i.): 76%
Overall excreted activity as percentage of administered activity, min ([1]; 24 h p. i.): 53%
Excreted activity Aex between given time point and previous time point, max ([1]; 48 h p. i.): 265 MBq
Excreted activity Aex between given time point and previous time point, mean ([1]; 48 h p. i.): 219 MBq
Excreted activity Aex between given time point and previous time point, min ([1]; 48 h p. i.): 160 MBq
Overall excreted activity as percentage of administered activity, max ([1]; 48 h p. i.): 89%
Overall excreted activity as percentage of administered activity, mean ([1]; 48 h p. i.): 77%
Overall excreted activity as percentage of administered activity, min ([1]; 48 h p. i.): 50%
Excreted activity Aex between given time point and previous time point, max ([1]; 72 h p. i.): 82 MBq
Excreted activity Aex between given time point and previous time point, mean ([1]; 72 h p. i.): 68 MBq
Excreted activity Aex between given time point and previous time point, min ([1]; 72 h p. i.): 50 MBq
Overall excreted activity as percentage of administered activity, max ([1]; 72 h p. i.): 89%
Overall excreted activity as percentage of administered activity, mean ([1]; 72 h p. i.): 78%
Overall excreted activity as percentage of administered activity, min ([1]; 72 h p. i.): 54%
Clearance of the unbound compound from the body ([1]; in words): rapidly cleared from the body
Excreted activity over a period of 72 h (per therapy cycle and patient), average ([1]; of the administered 6.6 GBq, patient cohort 2): approximately 4.8 GBq
Calculated effective half-life T1/2eff, max [2, 3]: 73.5 h
Calculated effective half-life T1/2eff, mean [2, 3]: 26.0 h
Calculated effective half-life T1/2eff, min [2, 3]: 11.0 h
Calculated effective half-life T1/2eff, min ([2]; time point 45.7 ± 2.1 h (48 h; from 24 h and 48 h)): 21.7 h
Calculated effective half-life T1/2eff, max [2, 4]: 74.5^a h
Calculated effective half-life T1/2eff, mean [2, 4]: 38.4^a h
Calculated effective half-life T1/2eff, min [2, 4]: 25.7^a h
Dose rate (measured at a distance of 2 m), max ([2]; time point 2 ± 0.3 h p. i.): 5.0 μSv/h
